Where “and” joins values, the source holds several entries; their conditions need not be identical. Identical values can stand only once.
Experiments:
Hb = target: T1, Hb (Homo sapiens, UniProt P69905); experiment: Oxygen equilibrium (P50 shift) of lysates from SS cells, Hemox Analyzer; assay type: cell-based; details: 20% hematocrit
T1 construct: whole blood suspensions from subjects with homozygous SCD (Hct of 20%); from tissue; host or cells: whole blood / red blood cells of patients with homozygous SS sickle cell disease; lysate for HPLC and OEC
T1 sequence (P69905 2-142): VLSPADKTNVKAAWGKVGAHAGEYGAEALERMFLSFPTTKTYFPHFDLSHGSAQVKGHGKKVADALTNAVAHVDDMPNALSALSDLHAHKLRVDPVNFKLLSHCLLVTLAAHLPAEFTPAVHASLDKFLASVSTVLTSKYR
T1 sequence (P68871 with tags, fused parts or gaps E7V partner): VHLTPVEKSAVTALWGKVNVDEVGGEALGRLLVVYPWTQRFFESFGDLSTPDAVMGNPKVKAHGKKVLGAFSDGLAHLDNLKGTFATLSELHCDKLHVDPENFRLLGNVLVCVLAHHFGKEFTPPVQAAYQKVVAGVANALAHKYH
Description: For our previously studied compounds (e.g., INN-312, TD-7, SAJ-310, INN-298) that incorporate methoxyPy substitution to vanillin analogs, we observed a significant increase in functional and biological activity as a result of increased protein interactions[31],[33],[35],[36]. We therefore expected similar effects for VZHE-039, which we tested by following VZHE-039 activity (measured by Hb adduct formation, P50-shift and RBC sickling inhibition) using SS blood. Briefly, we incubated 0.5, 1, and 2 mM concentrations of VZHE-039 with whole blood suspensions from subjects with homozygous SCD (Hct of 20%) under hypoxic conditions (2.5% O2/97.5% N2) at 37 °C for 2 h for expected peak adduct. Aliquot blood samples were drawn into a fixative (2% glutaraldehyde solution), and sickling was assessed by microscopy[31],[33],[35],[36]. Aliquot samples were also subjected to cation-exchange HPLC analyses to assess the degree of Hb modification to the high-affinity adduct form (Hb adduct formation), as well as standard O2 equilibrium curves (OEC) to assess P50-shifts using hemox analyzer[31],[33],[35],[36]. […] The improved potency of Voxelotor has been attributed to reduced binding stoichiometry, i.e. while Voxelotor binds Hb at a 1:1 ratio, VZHE-039 binds Hb at a 2:1 ratio. […] This observation, as will be discussed later is likely due to a meaningful contribution from the novel O2-independent antisickling activity as result of the strong contact with the αF-helix.
The effect of VZHE-039 on RBC sickling, Hb modification, and Hb oxygen equilibrium was studied utilizing samples from consented individuals with homozygous SCD following previous procedure. Briefly, blood suspended in Hemox buffer and supplemented with glucose and bovine serum albumin, to a final hematocrit of 20% were incubated under air in the absence or presence of 0.5 mM, 1 mM and 2 mM VZHE-039 at 37 °C for 1 h. This was followed by incubating the suspensions under hypoxic conditions (2.5% O2/97.5% N2) at 37 °C for 2 h. Aliquot samples were obtained and fixed with 2% glutaraldehyde solution without exposure to air, and then subjected to microscopic morphological analysis of bright field images (at × 40 magnification) of single layer cells on an Olympus BX40 microscope fitted with an Infinity 2 camera (Olympus), and the coupled Image Capture software. Leftover samples were washed in phosphate-buffer saline, and hemolyzed in hypotonic lysis buffer for subsequent Hb-modification and oxygen equilibrium analyses.
For the oxygen equilibrium studies, 100 μL aliquot samples from the above clarified lysate were added to 4 mL of 0.1 M potassium phosphate buffer, pH 7.0, in cuvettes and subjected to hemoximetry analysis using a Hemox Analyzer (TCS Scientific Corp.) to determine the P50 values.

CYP1A2 = target: T2, CYP1A2 (Homo sapiens, UniProt P05177); experiment: In vitro CYP inhibition, pooled human liver microsomes
T2 sequence (P05177 1-516): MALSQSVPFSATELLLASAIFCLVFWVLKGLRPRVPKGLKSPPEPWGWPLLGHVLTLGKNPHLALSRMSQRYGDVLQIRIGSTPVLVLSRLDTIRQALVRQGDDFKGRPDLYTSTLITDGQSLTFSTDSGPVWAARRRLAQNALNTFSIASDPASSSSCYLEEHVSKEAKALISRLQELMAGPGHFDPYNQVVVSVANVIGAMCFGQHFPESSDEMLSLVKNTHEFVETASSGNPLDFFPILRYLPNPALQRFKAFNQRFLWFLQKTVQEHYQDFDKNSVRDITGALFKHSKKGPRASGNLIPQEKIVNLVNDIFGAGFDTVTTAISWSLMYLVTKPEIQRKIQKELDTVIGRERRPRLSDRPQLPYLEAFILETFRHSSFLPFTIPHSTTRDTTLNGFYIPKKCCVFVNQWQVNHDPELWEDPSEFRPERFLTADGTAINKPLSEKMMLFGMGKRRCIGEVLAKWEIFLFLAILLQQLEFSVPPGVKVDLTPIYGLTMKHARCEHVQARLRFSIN
Description: Next, we tested VZHE-039 at concentrations of 0.1 to 100 µM, considered to be biologically relevant unbound plasma concentrations, for possible CYP inhibition using pooled human liver microsomes and isozyme-specific probe substrates (CYP1A2, CYP2C8, CYP2C9, CYP2C19, CYP2D6, CYP3A4, CYP2B6)[55].
VZHE-039 was studied for its inhibitory potential of seven major drug metabolizing human cytochrome P450 (CYP) enzymes (CYP1A2, CYP2C8, CYP2C9, CYP2C19, CYP2D6, CYP3A4, CYP2B6) using pooled human liver microsomes as published previously[26],[55]. The probe substrates include tacrine (CYP1A2), amodiaquine (CYP2C8), tolbutamide (CYP2C9), mephenytoin (CYP2C19), dextromethorphan (CYP2D6), midazolam (CYP3A4), testosterone (CYP3A4), and bupropion (CYP2B6). […] Assay conditions were optimized for each human cytochrome P450 substrate. The optimized reaction mixtures (200 μL) contained a final concentration of 0.2–0.5 mg/mL pooled human liver microsomes, 2 mM NADPH in 100 mM potassium phosphate, pH 7.4 buffer with 5 mM MgCl2, and VZHE-039 concentration of 0.1 to 100 µM. […] Effect of VZHE-039 on formation of the respective probe substrate metabolites (velnacrine, N‐desethylamodiaquine, 4-hydroxytolbutamide, 4′-hydroxymephenytoin, dextrophan, 1′-hydroxymidazolam, and 6β-hydroxtestosterone and hydroxybupropion) were determined using LC–MS/MS.

## O=Cc1c(O)cccc1OCc1cccc(CO)n1 [VZHE-039, 2-((6-(Hydroxymethyl)pyridin-2-yl)methoxy)-6-hydroxybenzaldehyde]
Hb; 0.5 mM
  P50 Shift (ΔP50): 22% and 22.3 ± 8.7%
Hb; 1 mM
  P50 Shift (ΔP50): 47% and 46.6 ± 5.4%
Hb; 2 mM
  P50 Shift (ΔP50): 76% and 75.6 ± 2.5%
CYP1A2
  IC50: 4.7 µM
